According to paper PMC8044227, “Cardiolipin enhances the enzymatic activity of cytochrome bd and cytochrome bo3 solubilized in dodecyl-maltoside” (Scientific Reports, 2021):
Blank lines part the entries; values can stand above or below the compound they belong to.

How the values were obtained:
Type in all cases: biochemical
[1] = target: T1, cytochrome bd (G. thermodenitrificans) (Geobacillus stearothermophilus, UniProt Q9Z9N1); assay: O2 consumption, Clark-type electrode; conditions: 200 μM quinone, 10 mM DTT; 0.025% DDM, pH 7.5, 37 °C; no cardiolipin
T1 construct: gene cbdA; CbdAB expressed from pSTE-cbdAB in G. thermodenitrificans K1041, purified from membranes in MEGA9+10
T1 sequence (Q9Z9N1 1-448): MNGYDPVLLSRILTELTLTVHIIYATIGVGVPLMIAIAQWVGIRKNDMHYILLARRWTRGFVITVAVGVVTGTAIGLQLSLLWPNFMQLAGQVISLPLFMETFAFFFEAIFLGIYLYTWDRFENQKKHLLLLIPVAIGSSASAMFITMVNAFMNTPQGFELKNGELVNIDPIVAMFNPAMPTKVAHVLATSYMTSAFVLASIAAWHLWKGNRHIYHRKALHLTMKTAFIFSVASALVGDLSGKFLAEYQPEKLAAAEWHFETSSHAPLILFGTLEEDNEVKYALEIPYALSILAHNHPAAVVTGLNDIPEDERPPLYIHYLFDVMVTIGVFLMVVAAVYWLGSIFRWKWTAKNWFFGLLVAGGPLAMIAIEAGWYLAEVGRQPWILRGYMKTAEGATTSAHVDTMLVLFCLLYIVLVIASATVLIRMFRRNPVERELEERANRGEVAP
T1 sequence (Q9Z9N0 1-342 partner): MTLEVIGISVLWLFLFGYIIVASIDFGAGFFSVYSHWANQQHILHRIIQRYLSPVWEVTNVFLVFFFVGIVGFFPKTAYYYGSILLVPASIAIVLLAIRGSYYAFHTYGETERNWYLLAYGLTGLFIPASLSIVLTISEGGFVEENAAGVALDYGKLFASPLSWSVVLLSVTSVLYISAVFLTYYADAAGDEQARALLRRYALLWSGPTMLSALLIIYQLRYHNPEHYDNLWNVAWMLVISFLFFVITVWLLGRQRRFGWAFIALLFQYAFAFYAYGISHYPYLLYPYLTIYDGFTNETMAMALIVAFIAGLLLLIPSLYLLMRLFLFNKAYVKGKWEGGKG

[2] = target: T2, cytochrome bd (C. glutamicum) (Corynebacterium glutamicum, UniProt Q9KWL8); assay: O2 consumption, Clark-type electrode; conditions: 200 μM quinone, 10 mM DTT; 0.025% DDM, pH 7.5, 37 °C; no cardiolipin
T2 construct: gene cydA; expressed from pPC4-cydABDC in C. glutamicum delta-ctaD, purified from membranes in DDM (CydD and CydC are not oxidase subunits)

[3] = target: T3, cytochrome bd (E. coli) (Escherichia coli, UniProt P0ABJ9); assay: O2 consumption activation, Clark-type electrode; conditions: activator; bovine heart lipid, mixed acyl chains (primarily linoleic acid); ubiquinol-1 substrate; 0.025% DDM, pH 7.5, 37 °C
T3 construct: gene cydA; CydABX complex, Strep-tag, expressed in E. coli MB43, streptactin-purified in DDM
T3 sequence (P0ABJ9 1-522): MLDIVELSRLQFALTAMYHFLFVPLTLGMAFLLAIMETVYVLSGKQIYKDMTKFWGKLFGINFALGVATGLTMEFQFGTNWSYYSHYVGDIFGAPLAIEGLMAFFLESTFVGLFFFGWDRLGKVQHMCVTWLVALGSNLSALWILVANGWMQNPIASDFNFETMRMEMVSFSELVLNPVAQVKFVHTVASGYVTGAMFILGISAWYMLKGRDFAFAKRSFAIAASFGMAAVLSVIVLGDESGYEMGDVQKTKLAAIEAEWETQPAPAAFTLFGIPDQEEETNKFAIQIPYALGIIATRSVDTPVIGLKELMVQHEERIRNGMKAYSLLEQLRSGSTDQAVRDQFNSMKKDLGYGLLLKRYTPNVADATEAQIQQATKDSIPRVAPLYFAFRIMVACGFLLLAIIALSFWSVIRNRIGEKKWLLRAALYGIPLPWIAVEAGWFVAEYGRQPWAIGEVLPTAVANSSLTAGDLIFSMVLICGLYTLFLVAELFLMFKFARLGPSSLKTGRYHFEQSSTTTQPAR
T3 sequence (P0ABK2 1-379 partner): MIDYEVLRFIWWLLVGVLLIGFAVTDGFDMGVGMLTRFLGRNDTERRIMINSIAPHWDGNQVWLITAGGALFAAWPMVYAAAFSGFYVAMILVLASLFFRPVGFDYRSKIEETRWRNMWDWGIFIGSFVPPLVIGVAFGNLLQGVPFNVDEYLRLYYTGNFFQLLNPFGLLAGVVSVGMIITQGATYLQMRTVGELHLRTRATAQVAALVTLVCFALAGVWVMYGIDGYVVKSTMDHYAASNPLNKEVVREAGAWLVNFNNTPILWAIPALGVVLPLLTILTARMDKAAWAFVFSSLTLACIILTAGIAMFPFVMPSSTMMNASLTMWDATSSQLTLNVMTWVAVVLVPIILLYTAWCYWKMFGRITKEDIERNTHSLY
T3 sequence (P56100 1-37 partner): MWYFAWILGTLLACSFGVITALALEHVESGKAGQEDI
Description: O2 consumption activation, Clark-type electrode on cytochrome bd (E. coli) | We examined the effect of CL and observed ~ twofold activation of the oxygen consumption activity

[4] = target: T1, cytochrome bd (G. thermodenitrificans); assay: O2 consumption inhibition, Clark-type electrode; conditions: menaquinol-1 substrate (200 μM quinone, 10 mM DTT); 0.025% DDM, pH 7.5, 37 °C; no cardiolipin
[5] = target: T2, cytochrome bd (C. glutamicum); assay: O2 consumption inhibition, Clark-type electrode; conditions: menaquinol-1 substrate (200 μM quinone, 10 mM DTT); 0.025% DDM, pH 7.5, 37 °C; no cardiolipin

Compound: CC(C)=CCc1c(C)c(O)c2ccccc2c1O [menaquinol-1]
O2 consumption, Clark-type electrode [1]: using menaquinol-1 instead of ubiquinol-1 as substrate
O2 consumption, Clark-type electrode [2]: using menaquinol-1 instead of ubiquinol-1 as substrate

fold activation at 10 μM [3]: ~ 2 fold
Compound: cardiolipin [CL]

Compound: CC(C)=CCC/C(C)=C/CC/C(C)=C/Cc1c(C)[nH]c2ccccc2c1=O [aurachin D]
inhibition at 400 nM [4]: G. thermodenitrificans cytochrome bd was sensitive to inhibition by aurachin D
inhibition at 400 nM [5]: oxygen consumption activity in the presence and absence of CL was sensitive to inhibition by aurachin D
